Patent publication US5434188A, “1-ether and 1-thioether-naphthalene-2-carboxamides as inhibitors of cell adhesion and as inhibitors of the activation of HIV” (Warner-Lambert Company, priority 1994, dated 1995)

Legend:
[1] = system: human neutrophil adhesion to TNF-α stimulated human umbilical vein endothelial cells; assay: Modified method: inhibition of human neutrophil adhesion to TNF-α stimulated HUVEC (ECA), calcein-labeled neutrophils; format: cell-based; details: for inhibition at 33 µM / inhibition at 100 µM: Neutrophil, neutrophils labeled with calcein; for inhibition at 33 µM: footnote c: 33 μM; for inhibition at 100 µM: footnote d: 100 μM
Procedure: MODIFIED METHOD FOR DETERMINING THE INHIBITION OF HUMAN NEUTROPHIL ADHESION TO TNF-α STIMULATED HUMAN UMBILICAL VEIN ENDOTHELIAL CELLS
Second passage HUVEC (Clonetics Corporation, San Diego, Calif., CC-2617) were seeded into Corning (Corning glass works, Corning, N.Y.) 96-well cell culture plates at approximately 5×10^3 cells/well and grown to confluency in supplemented endothelial basal medium (EBM, MCDB-131, Clonetics, 10 ng/mL EGF, 1 μg/mL hydrocortisone, 0.4% bovine brain extract, 5% Fetal Bovine Serum). One day prior to running the assay, typically 3 days postseeding, the cultures were re-fed with 0.2 mL/well supplemented EBM (S-EBM).
Preparation of Test Compounds
Test compounds were prepared as 10 mL stock solutions at a concentration of 1.0 mM. The compound were initially solubilized in 0.1 mL DMSO followed by the addition of 9.9 mL S-EBM. The drug preparations were then diluted in one step to a concentration of 66.6 μM. Solubilizations and dilutions were performed in polystyrene containers.
Recombinant human tumor necrosis factor-α(TNF, Genzyme, Boston, Mass., code TNF-H) was prepared at 400 U/mL in S-EBM. Stock TNF was prepared to 20,000 U/mL in Delbecco's phosphate buffered saline (PBS, Gibco, Grand Island, N.Y.) plus 0.1% BSA and stored at -70° C. HUVEC were washed one time with 0.2 mL warm unsupplemented EBM and then stimulated for 4 hours at 37° C. with 200 U/mL TNF in the presence of 33.3 μM test compound. This was accomplished by adding 0.1 mL of 400 U/mL TNF and 0.1 mL 66.6 μM test compound. These additions were done slowly as to not disrupt the HUVEC monolayer. Each compound was tested in six wells. Unstimulated (Vehicle control) and TNF-stimulated without test compound treatments were also run in each plate.
One hour prior to adding the neutrophils to the HUVEC, neutrophils (5×10^6/ mL) were labeled for 30 minutes at 37° C. with 5 μM calcein-AM (Molecular Probes, Eugene, Oreg.) in Hanks' balanced salt solution plus 0.45% BSA. Stock calcein was prepared to 5 mM in anhydrous DMSO and stored desiccated at -20° C. At the end of the incubation the cells were washed two times in cold HBSS and resuspended to a final concentration of 1×10^6 cells/mL in unsupplemented EBM.
Addition of Neutrophils to HUVEC
At the end of the 4-hour stimulation and immediately prior to the addition of the neutrophils to the HUVEC monolayer, the plates were washed with 0.2 mL warm unsupplemented EBM to remove TNF and drug. Neutrophils (1×10^5 cells) were slowly added to each of the treated wells and incubated for 30 minutes at 37° C. At the end of the incubation the plates were washed two times with 0.2 mL warm unsupplemented EBM followed by a final addition of 0.1 mL for plate scanning.
Determination of Relative Fluorescence
The relative fluorescence was determined using a Millipore Cytofluor 2300 system (excitation=480, emission=530, sensitivity=4).
Results were expressed as means of percent inhibition of TNF-stimulated adherence, using the following equation: [formula]
Some of these compounds were tested at concentrations of 33.3 μM, 10.0 μM, 3.3 μM, and 1.0 μM to determine IC50 values. Linear regression analysis of the means of the inhibition values were used to determine the IC50.

[2] = system: HIV-1 activation in OM-10.1 cells; details: poster NCDDG/AIDS 1991; cited from earlier work
ICAM-1 = assay: ELISA of ICAM-1 on TNFα stimulated HUVEC; format: cell-based, human; details: first of the two values
Procedure: (§1) Murine monoclonal anti-human ICAM-1 (R & D Systems, Cat No. BBA-4) or murine monoclonal anti-human E-selectin (R & D, Cat No. BBA-2) dissolved in DMEM/2%BSA were added to each well at 0.5 μg/mL and allowed to incubate at 37° C. for 2 hours. HUVEC monocultures were then washed 4 times with DMEM/2%BSA. A peroxidase conjugated sheep anti-mouse IgG (Cappel) was added (1:3,000 dilution) and allowed to incubate 1 hour at 37° C. The cells were then washed 4 times with DMEM. A color reagent (Biorad) was added to the fixed cells and incubated 15 minutes at room temperature. The reaction was stopped with a 2% oxalic acid solution and the absorbance read at 414 nm on a titertek plate reader.
(§2) Compounds were dissolved in DMSO at a concentration of […] and diluted with media to obtain final testing concentrations. HUVECs received compound dissolved in media 30 minutes before the TNFα challenge. The absorbance of non-stimulated HUVECs was subtracted from the absorbance values of TNFα stimulated cells before percent inhibition was determined. Percent inhibition was determined by comparing the absorbance of vehicle treated cells with drug treated cells. IC50 s were determined using linear regression analysis.

E-selectin = assay: ELISA of E-selectin on TNFα stimulated HUVEC; format: cell-based, human; details: second of the two values
Procedure: as §1, §2

[3] = system: HIV-1 activation in OM-10.1 cells; assay: Inhibition of activation of latent HIV-1 in the OM-10.1 cell line (TNF-α induced); format: cell-based; details: Human immunodeficiency virus 1, read-out: OM-10n (IC50 μM)
Excerpt: The cellular pathways involved in mediating the activating signal from the plasma membrane to the integrated virus, resulting in HIV-1 expression, are much less clear. Recently, the development of a reliable and simple system for evaluating compounds that could prevent activation of latent HIV was reported at the National […] (NCDDG)/AIDS by P. Feorino, S. T. Butera, T. M. Folks, and R. F. Schinazi, Nov. 3-7, 1991. The assay system employed the OM-10.1 cell line, a unique chronically-infected promyelocytic clone which remains CD4+ until HIV-1 activation with tumor necrosis factor-α. The expression of CD4+ on the cell surface and the activity of reverse transcriptase are used as markers for quantitating viral expression. Alternatively, other HIV markers, such as protease activity, which are known to those of skill in the art can be used. OM-10.1 cells remain CD4^+ until viral activation and respond to tumor necrosis factor induction, and therefore, these cultures are used to conveniently and rapidly examine pharmacologics for an ability […] down modulation (decrease in expression of CD4^+ on the cell surface) and HIV-1 expression.
A variety of compounds known to have antiviral properties against either acutely or chronically infected cells were evaluated for their ability to inhibit HIV expression in these OM-10.1 cells. […]

[4] = system: CD4 down regulation and viral expression in HIV-infected cells; details: Hamamoto, et al. 1989; cited from earlier work
[5] = system: human neutrophil adhesion to TNF-α, IL-α, and LPS-stimulated human umbilical vein endothelial cells; assay: Inhibition of human neutrophil adhesion to stimulated human umbilical vein endothelial cells (ECA), 51Cr-labeled neutrophils; format: cell-based; details: footnote b: 100 μM, neutrophils labeled with Cr
Excerpt: METHOD FOR DETERMINING THE INHIBITION OF HUMAN NEUTROPHIL ADHESION TO TNF-α, IL-α, AND LPS-STIMULATED HUMAN UMBILICAL VEIN ENDOTHELIAL CELLS (ECA)
Neutrophils were isolated from anticoagulant-treated venous blood obtained from healthy human volunteers according to the method of Ferrante and Thong (J. Immunol. Methods 24:389-393 (1978)). The cell preparations consisted of greater than 98% neutrophils.
Second passage human umbilical vein endothelial cells (HUVEC) (Clonetics, San Diego, Calif.) were seeded into Falcon 24-well cell culture plates (Becton Dickinson, Lincoln Park, N.J.) at approximately 2×10^4 cells per well. The cells were grown to confluent monolayers in endothelial basal medium (EBM, Clonetics) supplemented with 5% fetal calf serum (Hyclone Laboratories, Logan, Utah), 10 ng/mL EGF, 1 μg/mL hydrocortisone, 0.4% bovine brain extract (Clonetics) in 5% CO2 at 37° C. […]
Stimulation of HUVEC with tumor necrosis factor-α (TNF-α) (Genzyme, Cambridge, Mass.), interleukin (IL-1α) (Genzyme) or E. coli 0111:B4 lipopolysaccharide (LPS) (Sigma) in the presence or absence of drug was initiated 4 hours prior to the addition of neutrophils. […] Lysates were collected and the radioactivity in each well was determined by gamma ray spectroscopy. […]

For `COc1ccc2ccc(C(=O)NC(C)C)c(OC(C)C)c2c1` [Example 3, 7-Methoxy-1-(1-methylethoxy)-N-(1-methylethyl)-2-naphthalenecarboxamide], the inhibition at 33 µM [1] was 64%.

`CCNC(=O)c1ccc2ccc(OC)cc2c1OC(C)C` [Example 2, N-Ethyl-7-methoxy-1-(1-methylethoxy)-2-naphthalenecarboxamide] gave an inhibition at 100 µM [1] of 73%.

In the case of `Cc1cn([C@H]2C[C@H](F)[C@@H](CO)O2)c(=O)[nH]c1=O` [3'-fluoro-3'-deoxythymidine (FLT), 3'-fluoro-3'-deoxythymidine], the “inhibition of HIV-1 activation, in words” value [2] is given as “modest inhibitors of the activation of HIV-1”.

With `COc1ccc2ccc(C(N)=O)c(OC(C)C)c2c1` [Example 1, 7-Methoxy-1-(1-methylethoxy)-2-naphthalenecarboxamide] the “ICAM/ESEL % Inhib @ 30 μM: ICAM” value (ICAM-1) was 77%, the IC50 ([1]; footnote a, neutrophil adhesion to stimulated HUVEC, neutrophil label not given) was 11000 nM and the “ICAM/ESEL % Inhib @ 30 μM: ESEL” value (E-selectin) was 84%. The IC50 [3] was 2.5 µM.

For “interferon Y: modest inhibitor of the activation of HIV-1”, the “inhibition of HIV-1 activation, in words” value [2] is listed as “modest inhibitors of the activation of HIV-1”.

`COc1ccc2ccc(C(=O)NCc3ccccc3)c(OC(C)C)c2c1` [Example 4, 7-Methoxy-1-(1-methylethoxy)-N-(phenylmethyl)-2-naphthalenecarboxamide] showed an inhibition at 100 µM [1] of 14%.

For `COc1ccc2c(OC(C)C)c(C(N)=O)ccc2c1` [Example 6, 6-Methoxy-1-(1-methylethoxy)-2-naphthalenecarboxamide], the inhibition at 33 µM [1] was 9%.

In the case of `CN[C@@H]1C[C@H]2O[C@@](C)([C@@H]1OC)n1c3ccccc3c3c4c(c5c6ccccc6n2c5c31)C(=O)NC4` [Staurosporine, staurosporine], the “effect on CD4 down regulation and HIV expression, in words” value [4] is listed as “effective TPA inhibitor for both of these actions”.

For `CCCCCCCCCCCCCC(=O)O[C@@H]1[C@@H](C)[C@@]2(O)[C@@H](C=C(CO)C[C@]3(O)C(=O)C(C)=C[C@@H]23)[C@@H]2C(C)(C)[C@]12OC(C)=O` [12-0-tetradecanoylphorbol-13-acetate], the “effect on CD4 down regulation and HIV expression, in words” value [4] is listed as “mediates CD4 down regulation and viral expression in HIV-infected cells”.

In the case of `CC(=O)N(O)CCCCCNC(=O)CCC(=O)N(O)CCCCCNC(=O)CCC(=O)N(O)CCCCCN` [desferrioxamine], the “inhibition of HIV-1 activation, in words” value [2] is listed as “modest inhibitors of the activation of HIV-1”.

With `COc1ccc2ccc(C(N)=O)c(OC)c2c1` [Example 7, 1,7-Dimethoxy-2-naphthalenecarboximide] the inhibition at 33 µM [1] was 15%.

`CC(C)Oc1ccc2ccc(C(N)=O)c(OC(C)C)c2c1` [Example 5, 1,7-Bis-(1-methylethoxy)-2-naphthalenecarboxamide] showed an inhibition at 100 µM [5] of 45% and an IC50 [3] of 0.5 µM.
